# Reference: ChEMBL document CHEMBL1201862, “PubChem BioAssay data set” (2004)
#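 48-hour exposure; five concentrations; linearly interpolated endpoints. GI50 = concentration required for 50% inhibition of growth.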 Activity calls are given as the source filed them. No stated cut-off is given here; in the data, active = GI50 up to about 1.1 µM and inactive = higher. Where a SMILES comes first, the peptide text is derived from it. [ ]: non-standard residue; d: D form. The star is where a group is joined. ξ: configuration not given here. ξD = NC(CC(=O)O)C(=O)O; Boc = CC(C)(C)OC(=O)*; Aib = CC(C)(N)C(=O)O; OtBu = CC(C)(C)O*
# Assays:
# Experiment in all cases: NCI tumour cell line growth inhibition, 48 h
# MDA-MB-435 = test system: MDA-MB-435
# SN12C = test system: SN12C
# T47D = test system: T47D
# SW-620 = test system: SW-620
# SF-295 = test system: SF-295
# HL-60 = test system: HL-60
# RPMI-8226 = test system: RPMI-8226
# HCT-15 = test system: HCT-15
# NCI-H460 = test system: NCI-H460
# COLO 205 = test system: COLO 205
# SF-268 = test system: SF-268
# PC-3 = test system: PC-3
# ACHN = test system: ACHN
# U-251 = test system: U-251
# NCI-H226 = test system: NCI-H226
# IGROV-1 = test system: IGROV-1
# CCRF-CEM = test system: CCRF-CEM
# SK-MEL-28 = test system: SK-MEL-28
# A498 = test system: A498
# Malme-3M = test system: Malme-3M
SMILES,GI50 (MDA-MB-435),GI50 (SN12C),GI50 (T47D),GI50 (SW-620),GI50 (SF-295),GI50 (HL-60),GI50 (RPMI-8226),GI50 (HCT-15) [µM],GI50 (NCI-H460),GI50 (COLO 205),GI50 (SF-268),GI50 (PC-3),GI50 (ACHN),GI50 (U-251),GI50 (NCI-H226),GI50 (IGROV-1),GI50 (CCRF-CEM),GI50 (SK-MEL-28),GI50 (A498),GI50 (Malme-3M)
O=C(CP(c1ccccc1)c1ccccc1)c1cccc(C(=O)CP(c2ccccc2)c2ccccc2)c1,45.7 µM (inactive),56.8 µM (inactive),14.2 µM (inactive),> 100 µM (inactive),26.1 µM (inactive),16.2 µM (inactive),12.6 µM (inactive),49.3,19.7 µM (inactive),12.1 µM (inactive),80.9 µM (inactive),37.2 µM (inactive),84.1 µM (inactive),58.5 µM (inactive),66.4 µM (inactive),> 100 µM (inactive),6.76 µM (inactive),92 µM (inactive),–,–
c1cc(-c2sc(-c3ccncc3)c(-c3ccncc3)c2-c2ccncc2)ccn1,14.6 µM (inactive),17.6 µM (inactive),32.4 µM (inactive),17 µM (inactive),17.3 µM (inactive),–,33.9 µM (inactive),18.5,10.8 µM (inactive),12.8 µM (inactive),15.2 µM (inactive),19.8 µM (inactive),14.8 µM (inactive),14.1 µM (inactive),14.6 µM (inactive),18.2 µM (inactive),–,19.6 µM (inactive),12.5 µM (inactive),17.7 µM (inactive)
CCCCNC(=O)OCCN=c1c2ccccc2ccc2ccccc12,> 100 µM (inactive),> 100 µM (inactive),75 µM (inactive),> 100 µM (inactive),> 100 µM (inactive),> 100 µM (inactive),> 100 µM (inactive),> 100,> 100 µM (inactive),> 100 µM (inactive),> 100 µM (inactive),> 100 µM (inactive),> 100 µM (inactive),> 100 µM (inactive),> 100 µM (inactive),> 100 µM (inactive),> 100 µM (inactive),> 100 µM (inactive),–,> 100 µM (inactive)
O=[N+]([O-])c1cccc(/N=N/c2c(O)ccc3ccccc23)c1,39.1 µM (inactive),> 100 µM (inactive),> 100 µM (inactive),57 µM (inactive),31 µM (inactive),–,54.2 µM (inactive),44.6,–,> 100 µM (inactive),51.4 µM (inactive),55 µM (inactive),–,19.6 µM (inactive),–,94.8 µM (inactive),16.2 µM (inactive),90.4 µM (inactive),> 100 µM (inactive),63.1 µM (inactive)
COC(=O)CCC1=C(CC(=O)OC)C(C)(OC)N/C1=N/C(=O)OCc1ccccc1 (stereo not given),> 100 µM (inactive),> 100 µM (inactive),> 100 µM (inactive),> 100 µM (inactive),> 100 µM (inactive),–,> 100 µM (inactive),> 100,> 100 µM (inactive),> 100 µM (inactive),> 100 µM (inactive),> 100 µM (inactive),> 100 µM (inactive),> 100 µM (inactive),> 100 µM (inactive),> 100 µM (inactive),> 100 µM (inactive),> 100 µM (inactive),> 100 µM (inactive),> 100 µM (inactive)
COC(=O)c1nn2ccc3ccccc3c2c1C(=O)OC,76.7 µM (inactive),58.1 µM (inactive),> 100 µM (inactive),> 100 µM (inactive),> 100 µM (inactive),21.3 µM (inactive),–,54.3,> 100 µM (inactive),> 100 µM (inactive),> 100 µM (inactive),47.8 µM (inactive),> 100 µM (inactive),> 100 µM (inactive),> 100 µM (inactive),88.9 µM (inactive),–,> 100 µM (inactive),22.5 µM (inactive),> 100 µM (inactive)
Oc1ccc[nH]c1=[Se],41.8 µM (inactive),48.2 µM (inactive),22.4 µM (inactive),77.6 µM (inactive),29.3 µM (inactive),> 100 µM (inactive),40.6 µM (inactive),44.4,41.8 µM (inactive),18.7 µM (inactive),76.2 µM (inactive),> 100 µM (inactive),48.6 µM (inactive),32.7 µM (inactive),> 100 µM (inactive),66.7 µM (inactive),35.3 µM (inactive),71.1 µM (inactive),–,50.1 µM (inactive)
CCOC(=O)c1cc(C2(OC)CCN(Cc3ccccc3)C2=O)c(-c2cc(C)no2)[nH]1 (stereo not given),> 100 µM (inactive),–,> 100 µM (inactive),> 100 µM (inactive),> 100 µM (inactive),–,> 100 µM (inactive),> 100,82.4 µM (inactive),> 100 µM (inactive),> 100 µM (inactive),> 100 µM (inactive),> 100 µM (inactive),> 100 µM (inactive),–,> 100 µM (inactive),–,> 100 µM (inactive),> 100 µM (inactive),> 100 µM (inactive)
CC(=O)OC(C)(C)CCC(=O)[C@](C)(O)[C@H]1[C@H](O)C[C@@]2(C)[C@@H]3CCc4c(cc(OC5OC(CO)C(O)C(O)C5O)c(O)c4C)C3(C)C(=O)C[C@]12C (stereo not given in full),> 100 µM (inactive),> 100 µM (inactive),> 100 µM (inactive),> 100 µM (inactive),> 100 µM (inactive),–,–,> 100,> 100 µM (inactive),> 100 µM (inactive),> 100 µM (inactive),> 100 µM (inactive),> 100 µM (inactive),> 100 µM (inactive),> 100 µM (inactive),> 100 µM (inactive),> 100 µM (inactive),> 100 µM (inactive),> 100 µM (inactive),> 100 µM (inactive)
COC(=O)C(C)(C)NC(=O)C(C)(C)NC(=O)C(CC(=O)OC(C)(C)C)NC(=O)OC(C)(C)C (stereo not given) (Boc-[ξD](OtBu)-[Aib]-[Aib]-OMe),> 100 µM (inactive),–,> 100 µM (inactive),> 100 µM (inactive),> 100 µM (inactive),–,> 100 µM (inactive),> 100,> 100 µM (inactive),> 100 µM (inactive),3.71 µM (inactive),> 100 µM (inactive),> 100 µM (inactive),> 100 µM (inactive),> 100 µM (inactive),> 100 µM (inactive),> 100 µM (inactive),> 100 µM (inactive),> 100 µM (inactive),> 100 µM (inactive)
Cc1c(O)c(OC2OC(CO)C(O)C(O)C2O)cc2c1CC[C@@H]1C2(C)C(=O)C[C@]2(C)[C@@H]([C@@](C)(O)C(O)CCC(C)(C)O)[C@H](O)C[C@@]12C (stereo not given in full),> 100 µM (inactive),> 100 µM (inactive),> 100 µM (inactive),> 100 µM (inactive),> 100 µM (inactive),> 100 µM (inactive),–,> 100,> 100 µM (inactive),> 100 µM (inactive),> 100 µM (inactive),> 100 µM (inactive),> 100 µM (inactive),> 100 µM (inactive),> 100 µM (inactive),> 100 µM (inactive),> 100 µM (inactive),> 100 µM (inactive),> 100 µM (inactive),> 100 µM (inactive)
CSC1=N[C@H](c2ccccc2)CS1,> 100 µM (inactive),> 100 µM (inactive),> 100 µM (inactive),> 100 µM (inactive),> 100 µM (inactive),–,> 100 µM (inactive),> 100,> 100 µM (inactive),> 100 µM (inactive),–,> 100 µM (inactive),> 100 µM (inactive),> 100 µM (inactive),–,> 100 µM (inactive),> 100 µM (inactive),> 100 µM (inactive),> 100 µM (inactive),–
O=C(Nc1ccccc1)c1cc(S(=O)(=O)N2CCNC2=O)c(S)cc1Cl,> 100 µM (inactive),> 100 µM (inactive),> 100 µM (inactive),> 100 µM (inactive),> 100 µM (inactive),> 100 µM (inactive),> 100 µM (inactive),> 100,> 100 µM (inactive),> 100 µM (inactive),> 100 µM (inactive),> 100 µM (inactive),> 100 µM (inactive),> 100 µM (inactive),–,> 100 µM (inactive),> 100 µM (inactive),> 100 µM (inactive),> 100 µM (inactive),–
COc1cc(/C=C2\N=C(c3ccccc3)N(c3ccc4c(c3)Sc3cc(N5C(=O)/C(=C/c6cc(OC)c(OC)c(OC)c6)N=C5c5ccccc5)ccc3N4)C2=O)cc(OC)c1OC,18 µM (inactive),25.9 µM (inactive),25.2 µM (inactive),42.7 µM (inactive),22.9 µM (inactive),26.9 µM (inactive),27.4 µM (inactive),> 100,31.3 µM (inactive),20.9 µM (inactive),18.4 µM (inactive),19.6 µM (inactive),19 µM (inactive),21 µM (inactive),–,17 µM (inactive),22 µM (inactive),40.6 µM (inactive),20.7 µM (inactive),19.5 µM (inactive)
C=C(C)C1Cc2cc(C(C)=O)ccc2O1 (stereo not given),> 100 µM (inactive),> 100 µM (inactive),> 100 µM (inactive),> 100 µM (inactive),> 100 µM (inactive),> 100 µM (inactive),> 100 µM (inactive),> 100,> 100 µM (inactive),> 100 µM (inactive),> 100 µM (inactive),> 100 µM (inactive),> 100 µM (inactive),> 100 µM (inactive),> 100 µM (inactive),> 100 µM (inactive),> 100 µM (inactive),> 100 µM (inactive),–,> 100 µM (inactive)
